Source: ChEMBL document CHEMBL1177828, “Design and evaluation of 3,6-di(hetero)aryl imidazo[1,2-a]pyrazines as inhibitors of checkpoint and other kinases” (Bioorg Med Chem Lett, 2010)

Experiments:
[1] = target: Tyrosine-protein kinase Lyn (Homo sapiens) (UniProt P07948); experiment: Inhibition of LYN at 10 uM by mobility shift assay
[2] = target: MAP kinase-activated protein kinase 2 (Homo sapiens) (UniProt P49137); experiment: Inhibition of MAPKAP2 at 10 uM by mobility shift assay
[3] = target: T1, Protein kinase C zeta type (Homo sapiens) (UniProt Q05513); experiment: Inhibition of PKCz at 10 uM by mobility shift assay
T1 sequence (whole entry): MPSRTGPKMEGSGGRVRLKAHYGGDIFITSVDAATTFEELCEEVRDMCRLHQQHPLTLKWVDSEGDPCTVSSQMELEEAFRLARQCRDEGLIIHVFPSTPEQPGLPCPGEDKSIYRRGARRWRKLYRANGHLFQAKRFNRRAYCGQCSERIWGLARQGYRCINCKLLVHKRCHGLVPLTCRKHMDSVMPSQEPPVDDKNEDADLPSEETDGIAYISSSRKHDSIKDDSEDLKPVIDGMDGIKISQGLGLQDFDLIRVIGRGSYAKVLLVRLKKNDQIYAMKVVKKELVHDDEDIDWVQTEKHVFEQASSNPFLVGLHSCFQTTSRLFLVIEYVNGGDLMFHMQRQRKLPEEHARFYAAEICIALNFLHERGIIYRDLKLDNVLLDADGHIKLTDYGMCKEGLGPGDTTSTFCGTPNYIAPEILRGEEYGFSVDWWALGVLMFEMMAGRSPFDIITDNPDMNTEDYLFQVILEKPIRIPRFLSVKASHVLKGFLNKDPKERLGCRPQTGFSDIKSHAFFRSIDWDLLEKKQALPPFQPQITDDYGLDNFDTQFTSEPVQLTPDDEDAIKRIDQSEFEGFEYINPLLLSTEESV

[4] = Inhibition of PKA at 10 uM by mobility shift assay
[5] = target: RAC-beta serine/threonine-protein kinase (Homo sapiens) (UniProt P31751); experiment: Inhibition of AKT2 at 10 uM by mobility shift assay
[6] = target: RAC-alpha serine/threonine-protein kinase (Homo sapiens) (UniProt P31749); experiment: Inhibition of AKT1 at 10 uM by mobility shift assay
[7] = target: Ribosomal protein S6 kinase alpha-5 (Homo sapiens) (UniProt O75582); experiment: Inhibition of MSK1 at 10 uM by mobility shift assay
[8] = target: T2, Serine/threonine-protein kinase Chk1 (Homo sapiens) (UniProt O14757); experiment: Inhibition of CHK1 at 10 uM by mobility shift assay
T2 sequence (whole entry): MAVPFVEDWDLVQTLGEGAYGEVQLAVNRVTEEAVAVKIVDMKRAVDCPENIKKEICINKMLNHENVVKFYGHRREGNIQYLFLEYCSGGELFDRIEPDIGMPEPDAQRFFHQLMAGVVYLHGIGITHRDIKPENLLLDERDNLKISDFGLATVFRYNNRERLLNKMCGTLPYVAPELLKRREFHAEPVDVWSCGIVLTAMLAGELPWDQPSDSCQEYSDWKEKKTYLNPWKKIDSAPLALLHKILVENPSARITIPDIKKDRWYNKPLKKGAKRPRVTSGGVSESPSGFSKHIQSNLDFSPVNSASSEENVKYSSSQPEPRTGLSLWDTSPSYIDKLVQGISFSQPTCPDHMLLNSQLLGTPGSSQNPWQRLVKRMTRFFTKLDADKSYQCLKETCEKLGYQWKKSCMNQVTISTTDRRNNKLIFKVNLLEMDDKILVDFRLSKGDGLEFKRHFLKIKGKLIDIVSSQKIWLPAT

[9] = target: T3, Serine/threonine-protein kinase Chk1 (Homo sapiens, UniProt O14757); experiment: Inhibition of CHK1 by DELFIA
T3 sequence (O14757 whole entry): T2 sequence (whole entry)

[10] = target: Tyrosine-protein kinase ABL1 (Homo sapiens, UniProt P00519); experiment: Inhibition of ABL1 by Z-lite assay
[11] = target: Glycogen synthase kinase-3 beta (Homo sapiens, UniProt P49841); experiment: Inhibition of GSK3-beta
Sequence of Glycogen synthase kinase-3 beta (P49841 whole entry): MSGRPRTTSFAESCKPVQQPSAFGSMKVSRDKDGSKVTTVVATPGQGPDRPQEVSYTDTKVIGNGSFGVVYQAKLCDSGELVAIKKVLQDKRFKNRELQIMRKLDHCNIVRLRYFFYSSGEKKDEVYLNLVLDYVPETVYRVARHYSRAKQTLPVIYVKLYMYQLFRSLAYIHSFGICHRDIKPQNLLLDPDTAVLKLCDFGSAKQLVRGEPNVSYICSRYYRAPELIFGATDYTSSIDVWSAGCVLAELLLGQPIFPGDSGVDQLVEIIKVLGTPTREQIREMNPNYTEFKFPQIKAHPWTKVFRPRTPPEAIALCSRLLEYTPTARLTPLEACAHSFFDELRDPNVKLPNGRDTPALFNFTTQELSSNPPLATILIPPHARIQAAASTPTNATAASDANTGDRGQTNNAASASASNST

Sequence of RAC-beta serine/threonine-protein kinase (Homo sapiens) (P31751 whole entry): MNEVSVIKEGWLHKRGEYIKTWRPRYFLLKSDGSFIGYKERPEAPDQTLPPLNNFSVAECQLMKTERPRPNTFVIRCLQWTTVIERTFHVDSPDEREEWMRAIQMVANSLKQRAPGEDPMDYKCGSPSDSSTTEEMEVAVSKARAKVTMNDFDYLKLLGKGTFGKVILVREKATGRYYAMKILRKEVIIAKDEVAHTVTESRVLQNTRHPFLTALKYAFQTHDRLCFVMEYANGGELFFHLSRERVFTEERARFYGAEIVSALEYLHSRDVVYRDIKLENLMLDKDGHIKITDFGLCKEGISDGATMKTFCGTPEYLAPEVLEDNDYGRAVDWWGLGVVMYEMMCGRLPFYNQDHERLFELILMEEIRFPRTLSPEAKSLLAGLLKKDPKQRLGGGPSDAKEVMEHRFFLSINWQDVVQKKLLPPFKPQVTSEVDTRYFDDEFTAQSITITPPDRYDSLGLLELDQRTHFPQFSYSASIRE
Sequence of MAP kinase-activated protein kinase 2 (Homo sapiens) (P49137 whole entry, looked up): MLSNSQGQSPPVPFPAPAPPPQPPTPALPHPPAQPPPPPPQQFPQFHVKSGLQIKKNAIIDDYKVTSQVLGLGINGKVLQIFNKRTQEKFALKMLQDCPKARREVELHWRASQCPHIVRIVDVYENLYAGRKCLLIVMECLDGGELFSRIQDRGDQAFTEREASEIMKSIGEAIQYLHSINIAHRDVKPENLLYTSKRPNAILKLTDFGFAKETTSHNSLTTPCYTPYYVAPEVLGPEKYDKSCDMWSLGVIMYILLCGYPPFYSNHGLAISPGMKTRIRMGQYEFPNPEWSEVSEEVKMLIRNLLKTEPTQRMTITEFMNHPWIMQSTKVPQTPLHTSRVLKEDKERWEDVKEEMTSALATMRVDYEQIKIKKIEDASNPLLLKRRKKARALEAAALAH
Sequence of Ribosomal protein S6 kinase alpha-5 (Homo sapiens) (O75582 whole entry, looked up): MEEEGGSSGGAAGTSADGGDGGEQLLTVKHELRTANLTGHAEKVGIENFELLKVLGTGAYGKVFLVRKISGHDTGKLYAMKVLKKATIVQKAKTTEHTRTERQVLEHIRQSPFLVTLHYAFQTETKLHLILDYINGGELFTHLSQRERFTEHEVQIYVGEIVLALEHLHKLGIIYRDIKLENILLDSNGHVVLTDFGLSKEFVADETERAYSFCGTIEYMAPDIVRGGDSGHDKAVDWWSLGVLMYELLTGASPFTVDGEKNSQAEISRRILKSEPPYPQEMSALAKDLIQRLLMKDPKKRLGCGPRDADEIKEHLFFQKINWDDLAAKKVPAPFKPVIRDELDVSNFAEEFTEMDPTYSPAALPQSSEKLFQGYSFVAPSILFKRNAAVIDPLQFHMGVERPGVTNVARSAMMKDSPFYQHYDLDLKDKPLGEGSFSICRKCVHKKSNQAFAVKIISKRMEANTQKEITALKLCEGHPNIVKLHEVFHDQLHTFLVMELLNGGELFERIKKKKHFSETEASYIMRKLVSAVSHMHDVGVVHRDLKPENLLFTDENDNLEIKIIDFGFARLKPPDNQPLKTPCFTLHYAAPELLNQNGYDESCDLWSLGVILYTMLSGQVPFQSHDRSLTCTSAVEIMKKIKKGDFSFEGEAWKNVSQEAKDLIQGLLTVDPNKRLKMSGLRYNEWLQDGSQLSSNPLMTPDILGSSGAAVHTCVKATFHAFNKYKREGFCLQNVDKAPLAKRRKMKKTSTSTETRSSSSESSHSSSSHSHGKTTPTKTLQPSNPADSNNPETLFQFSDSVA
Sequence of Tyrosine-protein kinase Lyn (Homo sapiens) (P07948 2-512 limits assumed): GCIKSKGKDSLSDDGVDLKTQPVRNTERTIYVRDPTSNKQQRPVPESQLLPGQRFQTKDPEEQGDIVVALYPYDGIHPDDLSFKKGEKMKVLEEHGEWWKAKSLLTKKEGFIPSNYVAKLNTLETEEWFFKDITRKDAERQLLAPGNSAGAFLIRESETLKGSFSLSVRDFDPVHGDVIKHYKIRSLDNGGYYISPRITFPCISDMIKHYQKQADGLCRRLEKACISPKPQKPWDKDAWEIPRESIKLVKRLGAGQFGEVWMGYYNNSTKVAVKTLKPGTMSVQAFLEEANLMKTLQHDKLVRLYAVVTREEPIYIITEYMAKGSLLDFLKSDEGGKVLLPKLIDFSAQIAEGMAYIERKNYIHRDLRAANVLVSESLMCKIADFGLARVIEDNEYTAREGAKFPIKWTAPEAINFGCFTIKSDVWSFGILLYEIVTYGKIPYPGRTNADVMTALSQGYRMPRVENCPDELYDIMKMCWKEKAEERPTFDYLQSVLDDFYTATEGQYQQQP
Sequence of RAC-alpha serine/threonine-protein kinase (Homo sapiens) (P31749 whole entry): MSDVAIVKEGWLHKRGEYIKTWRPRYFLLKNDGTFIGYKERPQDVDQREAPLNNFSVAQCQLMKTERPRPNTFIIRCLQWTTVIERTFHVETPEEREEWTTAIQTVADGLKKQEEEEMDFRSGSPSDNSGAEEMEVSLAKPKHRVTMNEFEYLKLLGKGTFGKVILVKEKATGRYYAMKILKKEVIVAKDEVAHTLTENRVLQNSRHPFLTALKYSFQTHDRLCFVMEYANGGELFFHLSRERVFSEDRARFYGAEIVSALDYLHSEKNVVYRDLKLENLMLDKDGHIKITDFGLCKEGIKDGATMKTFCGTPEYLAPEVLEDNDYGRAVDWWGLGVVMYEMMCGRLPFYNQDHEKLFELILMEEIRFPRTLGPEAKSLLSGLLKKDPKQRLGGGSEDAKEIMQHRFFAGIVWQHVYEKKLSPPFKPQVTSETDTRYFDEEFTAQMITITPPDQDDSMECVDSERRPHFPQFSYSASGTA
Sequence of Tyrosine-protein kinase ABL1 (P00519 whole entry): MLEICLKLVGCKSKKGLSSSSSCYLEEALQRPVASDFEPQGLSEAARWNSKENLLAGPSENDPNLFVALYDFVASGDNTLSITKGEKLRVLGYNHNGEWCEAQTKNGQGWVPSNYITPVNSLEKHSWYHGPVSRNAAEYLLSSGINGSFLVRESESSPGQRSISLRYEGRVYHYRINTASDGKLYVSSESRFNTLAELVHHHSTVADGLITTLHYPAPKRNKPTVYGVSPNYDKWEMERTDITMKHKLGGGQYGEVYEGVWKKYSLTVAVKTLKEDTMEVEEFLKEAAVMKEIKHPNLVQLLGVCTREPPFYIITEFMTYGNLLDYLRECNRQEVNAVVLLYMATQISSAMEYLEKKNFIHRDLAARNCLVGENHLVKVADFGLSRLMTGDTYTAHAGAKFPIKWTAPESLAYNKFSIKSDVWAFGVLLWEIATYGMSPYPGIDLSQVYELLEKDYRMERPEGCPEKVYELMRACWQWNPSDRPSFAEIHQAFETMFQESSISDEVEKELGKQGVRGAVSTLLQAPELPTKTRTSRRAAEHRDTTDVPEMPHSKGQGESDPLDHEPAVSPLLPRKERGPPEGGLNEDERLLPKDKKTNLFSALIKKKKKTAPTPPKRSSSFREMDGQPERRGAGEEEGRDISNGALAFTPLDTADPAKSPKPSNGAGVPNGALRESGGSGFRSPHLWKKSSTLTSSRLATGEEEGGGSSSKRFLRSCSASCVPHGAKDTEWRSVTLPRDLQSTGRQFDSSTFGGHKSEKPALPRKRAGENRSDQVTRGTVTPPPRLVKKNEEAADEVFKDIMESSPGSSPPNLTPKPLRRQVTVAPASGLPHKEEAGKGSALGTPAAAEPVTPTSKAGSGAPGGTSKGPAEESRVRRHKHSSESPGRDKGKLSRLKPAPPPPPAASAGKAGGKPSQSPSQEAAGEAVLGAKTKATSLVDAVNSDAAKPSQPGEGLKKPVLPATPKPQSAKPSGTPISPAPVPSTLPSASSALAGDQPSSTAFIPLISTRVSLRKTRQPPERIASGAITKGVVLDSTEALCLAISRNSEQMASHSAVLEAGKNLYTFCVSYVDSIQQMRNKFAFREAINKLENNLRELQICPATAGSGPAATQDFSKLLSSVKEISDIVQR

| inhibition [1] | inhibition [2] | inhibition [3] | inhibition [4] | inhibition [5] | inhibition [7] | inhibition [8] | IC50 [11] | Structure (SMILES) | inhibition [6] | IC50 [9] | IC50 [10] |
| --- | --- | --- | --- | --- | --- | --- | --- | --- | --- | --- | --- |
| 59% | 35% | 20% | 2% | 14% | 47% | 68% |  | c1ccc2c(-c3cnc4cnc(-c5cn[nH]c5)cn34)c[nH]c2c1 | 11% |  |  |
| 46% | -2% | 0% |  |  | 15% | 8% | 3.1 µM | c1ccc(-c2cnc3cnc(-c4ccncc4)cn23)cc1 |  |  |  |
| 99% | -6% | -6% | -1% | 2% | 16% | 32% |  | OCc1cccc(-c2cn3c(-c4cn[nH]c4)cnc3cn2)c1 |  |  |  |

| Structure (SMILES) | inhibition [1] | inhibition [2] | inhibition [3] | inhibition [4] | inhibition [5] | inhibition [7] | inhibition [8] | IC50 [11] | inhibition [6] | IC50 [9] | IC50 [10] |
| --- | --- | --- | --- | --- | --- | --- | --- | --- | --- | --- | --- |
| c1n[nH]cc1-c1cnc2ncc(-c3cn[nH]c3)n2c1 | 94% | -2% | 11% |  | -5% | 16% | 40% |  | -6% | 5 µM | 0.44 µM |
